Source: the supplement of paper PMC10307832

Tests used:
Assay in all cases: relative viability (nuclei count vs DMSO), 5 days (fraction); higher = more cells survive
Lapatinib + Olaparib = compound: CS(=O)(=O)CCNCc1ccc(-c2ccc3ncnc(Nc4ccc(OCc5cccc(F)c5)c(Cl)c4)c3c2)o1 [Lapatinib] + O=C(c1cc(Cc2n[nH]c(=O)c3ccccc23)ccc1F)N1CCN(C(=O)C2CC2)CC1 [Olaparib] (partner 8 µM)
Summary of the method: (§1)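 Relative viability was taken as the ratio of nuclei in treated wells to nuclei in vehicle wells. Lung cancer cell lines in 1536-well plates received compounds by pin tool one day after seeding, either one drug alone or a fixed anchor-drug dose plus five library-drug doses (not always all listed) in √10 steps. Nuclei were counted on 4× images after 5 days of treatment, and values are medians of duplicate plates.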

Lapatinib + Linsitinib = compound: CS(=O)(=O)CCNCc1ccc(-c2ccc3ncnc(Nc4ccc(OCc5cccc(F)c5)c(Cl)c4)c3c2)o1 [Lapatinib] + C[C@]1(O)C[C@@H](c2nc(-c3ccc4ccc(-c5ccccc5)nc4c3)c3c(N)nccn32)C1 [Linsitinib] (partner 1 µM)
Summary of the method: as §1

Lapatinib + OSI-027 = compound: CS(=O)(=O)CCNCc1ccc(-c2ccc3ncnc(Nc4ccc(OCc5cccc(F)c5)c(Cl)c4)c3c2)o1 [Lapatinib] + COc1cccc2cc(-c3nc([C@H]4CC[C@H](C(=O)O)CC4)n4ncnc(N)c34)[nH]c12 [OSI-027] (partner 0.5 µM)
Summary of the method: as §1

Lapatinib + Trametinib = compound: CS(=O)(=O)CCNCc1ccc(-c2ccc3ncnc(Nc4ccc(OCc5cccc(F)c5)c(Cl)c4)c3c2)o1 [Lapatinib] + CC(=O)Nc1cccc(-n2c(=O)n(C3CC3)c(=O)c3c(Nc4ccc(I)cc4F)n(C)c(=O)c(C)c32)c1 [Trametinib] (partner 0.02 µM)
Summary of the method: as §1

| Cell Line | relative viability (Lapatinib + Olaparib; first compound 0.02 µM) | relative viability (Lapatinib + Olaparib; first compound 0.06325 µM) | relative viability (Lapatinib + Olaparib; first compound 0.2 µM) | relative viability (Lapatinib + Olaparib; first compound 0.6325 µM) | relative viability (Lapatinib + Olaparib; first compound 2 µM) | relative viability (Lapatinib + Linsitinib; first compound 0.02 µM) | relative viability (Lapatinib + Linsitinib; first compound 0.06325 µM) | relative viability (Lapatinib + Linsitinib; first compound 0.2 µM) | relative viability (Lapatinib + Linsitinib; first compound 0.6325 µM) | relative viability (Lapatinib + Linsitinib; first compound 2 µM) | relative viability (Lapatinib + OSI-027; first compound 0.06325 µM) | relative viability (Lapatinib + OSI-027; first compound 0.2 µM) | relative viability (Lapatinib + OSI-027; first compound 0.6325 µM) | relative viability (Lapatinib + OSI-027; first compound 2 µM) | relative viability (Lapatinib + Trametinib; first compound 0.02 µM) | relative viability (Lapatinib + Trametinib; first compound 0.06325 µM) | relative viability (Lapatinib + Trametinib; first compound 0.2 µM) | relative viability (Lapatinib + Trametinib; first compound 0.6325 µM) | relative viability (Lapatinib + Trametinib; first compound 2 µM) | relative viability (Lapatinib + OSI-027; first compound 0.02 µM) |
| --- | --- | --- | --- | --- | --- | --- | --- | --- | --- | --- | --- | --- | --- | --- | --- | --- | --- | --- | --- | --- |
| HCC-44 | 0.981 | 1 | 0.992 | 0.974 | 0.867 | 0.709 | 0.648 | 0.628 | 0.627 | 0.493 | 0.341 | 0.509 | 0.421 | 0.473 | 1.03 | 1.05 | 1.16 | 1.04 | 0.807 | – |
| NCI-H1650 | 0.73 | 0.847 | 0.767 | 0.802 | 0.621 | – | – | – | – | – | 0.456 | 0.59 | 0.555 | 0.338 | 0.568 | 0.516 | 0.514 | 0.46 | 0.444 | 0.437 |
| NCI-H596 | – | 0.578 | 0.713 | 0.679 | 0.567 | 1.11 | 1.02 | 1.09 | 1.19 | 0.839 | 0.52 | 0.566 | 0.671 | 0.416 | – | 0.745 | 0.777 | 0.854 | 0.617 | – |
| NCI-H1915 | – | 0.277 | 0.275 | 0.243 | 0.237 | – | 1.09 | 1.08 | 1.02 | 1.1 | 0.601 | 0.629 | 0.607 | 0.619 | – | 0.29 | 0.3 | 0.292 | 0.304 | – |
| NCI-H1395 | – | 0.455 | 0.459 | 0.522 | 0.415 | – | 1.01 | 1.03 | 1.03 | 1.01 | 0.597 | 0.612 | 0.636 | 0.627 | – | 0.956 | 1.07 | 1.06 | 1.03 | 0.535 |
| CAL-12T | 0.703 | 0.745 | 0.71 | 0.599 | 0.556 | 0.761 | 0.83 | 0.634 | 0.725 | 0.579 | 0.32 | 0.497 | 0.319 | 0.313 | 0.308 | 0.257 | 0.313 | 0.29 | 0.203 | – |
| SW 900 | – | 0.78 | 0.574 | 0.864 | 0.56 | – | – | – | – | – | 0.576 | 0.532 | 0.496 | 0.488 | – | 0.829 | 0.785 | 0.771 | 0.689 | – |
| NCI-H2342 | 0.406 | 0.405 | 0.398 | 0.433 | 0.348 | – | – | – | – | – | 0.503 | 0.506 | 0.562 | 0.55 | 0.706 | 0.722 | 0.65 | 0.676 | 0.629 | 0.552 |
